“Also recorded” adds a separate entry of the source. Bounds are passed on as bounds.

The values below come from patent US6265443A, “Method for treating neuronal injury with carboxyfullerene” (priority 1997, dated 2001).

The conditions of data set [1]: native C60; toluene or benzene; cited from earlier work.
Data set [2] can be described thus: Spin-label/EPR membrane parameters (5- or 16-doxyl ketostearic acid in brain lipids). On the set-up: species or system mouse. Particulars: 16-doxylstearic acid; control 0.8. On the procedure:
Values are mean±SEM, n=8-12 per condition. I=p<0.05 vs. untreated injury condition, using ANOVA followed by Student-Newman-Keuls test for multiple comparisons. **=p<0.05 R-3b different than O-3a. […] The spin labels were added to lipids extracted from adult mouse brain at a ratio of 1:100. EPR settings were the same as those listed in the legend for FIGS. 9A and 9B.
^a Order parameter, S = a(T_.cent. - T .cent.)/(T - T ),
^b Correlation time, tc = 6.5 × 10^-10 wo [(ho
^c Lipid/aqueous partition factor, f = hL /hA, where hL

Data set [3] has as its system cortical neurons. Kind of data set: NMDA-induced excitotoxic neuronal death in neuron-astrocyte co-cultures (LDH efflux). In kind it is cell-based, mouse. On the procedure: (§1) Mouse embryos (gestational day 15) are removed from pregnant anesthetized Swiss-Webster mice, and the neocortex is dissected away from other brain structures. After brief incubation in trypsin, the cells are dissociated by trituration, and the cell suspension is then diluted into plating medium and plated onto previously-prepared 24-well Plastek culture plates coated with poly-D-lysine/laminin (for neuronal cultures) or onto an existing bed of astrocytes (for co-cultures). After 1-2days in vitro, a partial exchange with glial conditioned medium is made for "pure" neuronal cultures, and cytosine arabinoside (3 μM) is added immediately after feeding to inhibit glial proliferation. Mixed cultures are fed biweekly with growth medium until 11-12 days in vitro, when they are fed with serum-free MS containing 2 mM L-glutamine. Unless otherwise stated, cells were used at 14-16 days in vitro.
Carboxyfullerene (3-300 (M) was co-applied to neuron-astrocyte co-cultures described above with NMDA for assessment of neuroprotection. Brief exposure to NMDA in the presence of the carboxyfullerene was carried out by triple exchange of the medium with HBBSS, followed by addition of 50 μM-500 μM NMDA plus carboxyfullerene for 10 minutes. The NMDA and carboxyfullerene were removed by quadruple exchange of the medium with MS, and the cultures were placed in the humidified, CO2 (5%), 37° C. incubator for 24 hours, when the extent of injury was assessed.

Data set [4] concerns hepatocytes. The data set can be described thus: Protection in hepatocytes. It counts as cell-based.
Data set [5] in a line: EPR spin-trap (DMPO) hydroxyl radical scavenging. The settings on record: for scavenging of OH: EPR. On the procedure:
(§2) FIGS. 9A and 9B show the EPR spectra of OH (from 100 μM H2 O2 in Fe^2+ by the Fenton reaction) and O2 - (from xanthine+xanthine oxidase) radicals with 100 mM 5,5-dimethyl-1-pyrolline-N-oxide (DMPO) as the spin-trapping agent. Hydroxyl radical (FIG. 9A): OH in the presence of […] alone (top), in the presence of 4 mM O-3a (middle), or in the presence of 4 mM R-3b (bottom). Superoxide radical (right): O2 - in DMPO alone (top), in the presence of 400 mM O-3a (middle), in the presence of 400 mM R-3b (bottom). The arrow designates a spurious signal due to an unknown radical in the cavity. The sample was analyzed in a quartz flat cell (60×10×0.25 mm) in a Bruker 200, X-band EPR spectrometer. Settings were power=1.6 mW, modulation=1 G, field modulation=100 Hz, R.G.=3.2×10^5.

Data set [6] relates to cortical neurons. The data set can be described thus: AMPA-induced excitotoxic neuronal death in neuron-astrocyte co-cultures (LDH efflux). In kind it is cell-based, mouse. As to the method: as §1
Data set [7] is described as follows: EPR free radical scavenging (hydroxyl and superoxide). The settings on record: for anti-oxidant potency, isomers compared: EPR analysis. As to the method: as §2, with “The arrow designates a spurious signal due to an unknown radical in the cavity.” left out
Data set [8] deals with endothelial cell cultures. Kind of data set: Protection in endothelial cell cultures. In kind it is cell-based.
Data set [9] can be described thus: EPR spin-trap (DMPO) superoxide radical scavenging, xanthine + xanthine oxidase. Particulars: xanthine oxidase with xanthine. As to the method:
as §2

Data set [10] concerns cortical neurons. The data set can be described thus: Neuroprotection, general statement. It counts as cell-based, mouse. On the procedure:
as §1

The nature of data set [11]: Solubility. In kind it is physicochemical. The source says: Solutions of carboxyfullerene were translucent brown.
The subject of data set [12] is wild-type animals. Particulars: mouse, in vivo, 15 mg/kg/day. The source says: The 8 day increase in survival reached statistical significance (p=0.041), by t-test. There was no difference in survival for FALS mice who received no pumps (123 days, n=4) or those treated with saline-filled pumps (125 days, n=6).
The subject of data set [13] is cortical neurons. Kind of data set: Serum deprivation apoptotic neuronal death (trypan blue). In kind it is cell-based, mouse. As to the method:
as §1

Data set [14] concerns FALS mice. Kind of data set: Survival in transgenic model of ALS (FALS mice, Gurney G1 strain). Particulars: 15 mg/kg/day, intraperitoneal mini-osmotic pumps. In kind it is in vivo, mouse. As to the method: The G1 line, with 18 copies and 4 times the SOD activity of wildtype animals, develops motor neuron death by 3-4 months of age, with hindlimb weakness, impaired grooming, and thinning along their flanks. Affected mice were dead before 5 months of age (Gurney et al., 1994).
C60 (C(COOH)2)3 was used to treat FALS mice (Gurney G1 strain) to determine its ability to treat FALS. At 10 weeks of age, Alzet mini-osmotic pumps (28 day, 6 (l/day, 15 mg/kg/day) containing C60 (C(COOH)2)3 (the mixed isomers, which consist of >90% O-3a) or saline were implanted intraperitoneally. The pumps were replaced at 14 weeks of age. Videotaped assessments of open field walking were performed and scored using the Bresnahan scale for spinal cord injury (Basso et al, 1995). As reported by Gurney and colleagues, these animals develop motor symptoms by approximately 90 days of age, and are moribund between 125 and 145 days of age.

The subject of data set [15] is NMDA receptor. The data set can be described thus: NMDA-stimulated 45Ca2+ accumulation in cultured neurons. In kind it is cell-based, mouse. The settings on record: up to 300 (M [µM], with NMDA 300 (M, 10 min. On the procedure:
as §1, with “Mouse neocortical cultures were prepared as neuron-astrocyte co-cultures (approximately 50% astrocytes) (Rose et al., 1992) or as neuronal cultures (<2% astrocytes). Mouse” for “Mouse”
To verify that protection against NMDA-induced neuronal cell injury was not due to a reduction in NMDA-induced calcium influx, ^45 Ca^2+ tracer studies were performed. […]

As to `c12c3c4c5c1c1c6c7c2c2c8c3c3c9c4c4c%10c5c5c1c1c6c6c%11c7c2c2c7c8c3c3c8c9c4c4c9c%10c5c5c1c1c6c6c%11c2c2c7c3c3c8c4c4c9c5c1c1c6c2c3c41` [C60, Buckminsterfullerene], the “solubility (solvents)” value in data set [1] is given as “soluble only in a limited number of solvents, such as toluene or benzene”.
In [2], `O=C(O)C1(C(=O)O)C23c4c5c6c7c8c4-c4c2c2c9c%10c%11c%12c(c-5c5c%13c%14c%15c%16c%17c(c-7c7c%18c%19c%20c%21c(c4C%204C(C(=O)O)(C(=O)O)C874)c2c2c9c4c%11c7c(c%13%12)c%14c8c%16c9c(c%18%17)c%19c%11c%21c2c2c4c7c8c9c%112)C%152C(C(=O)O)(C(=O)O)C652)C%1013` (stereo not shown) [O-3a] displayed a Lipid/aqueous partition factors of 1.0 ± 0.2. For the same molecule, the “protection from NMDA injury vs R-3b” value in data set [3] (FIG. 10A, n=8-12 per condition) was “slightly better protection”. Moreover, the “protection from injury in hepatocytes vs R-3b” value in data set [4] is listed as “enhanced protection over R-3b”. Moreover, in data set [5] (150 (M [µM], H2O2, 15 minute period), the “OH signal (DMPO-OH spin adduct)” value was “elimination of this OH signal”. Besides, the “scavenging of OH” value in data set [5] is given as “extremely potent scavengers of OH”. Besides, the “protection against AMPA-induced neuronal death vs R-3b” value in [6] (FIG. 10B, n=8-12 per condition) is “substantially better protection”. In addition, in [7], the “anti-oxidant potency, isomers compared” value is on record as “equipotent anti-oxidants”. The “protection from injury in endothelial cell cultures vs R-3b” value in [8] is “enhanced protection over R-3b”. In addition, the “superoxide radical signal (DMPO-OOH)” value in [9] is “eliminated the superoxide radical signal”.
Regarding `O=C(O)C1(C(=O)O)C23c4c5c6c7c8c9c%10c%11c%12c%13c%14c%15c(c6c6c4c4c%16c%17c%18c(c%19c%20c2c5c8c2c%20c5c%19c8c%19c%20c(c%21c%12c%12c%22c%23c(c(c%188)C%198C(C(=O)O)(C(=O)O)C%21%228)c%17c8c4c6c%15c(c%12%14)c%238)c%11c(c92)c%205)C%1613)C71C(C(=O)O)(C(=O)O)C%13%101` (stereo not shown) [R-3b], in [10], the neuroprotection entry is listed as “effective neuroprotectant”. The Lipid/aqueous partition factors in [2] amounted to 0.6. The “scavenging of OH” value in data set [5] is on record as “extremely potent scavengers of OH”. Besides, the “anti-oxidant potency, isomers compared” value in data set [7] is listed as “equipotent anti-oxidants”. Moreover, the “superoxide radical signal (DMPO-OOH)” value in data set [9] is “eliminated the superoxide radical signal”.
Consider `O=C(O)C1(C(=O)O)C23c4c5c6c7c8c9c(c%10c%11c2c2c4c4c%12c5c5c6c6c8c8c%13c9c9c%10c%10c%11c%11c2c2c4c4c%12c%12c5c5c6c8c6c8c%13c9c9c%10c%10c%11c2c2c4c4c%12c5c6c5c8c9c%10c2c45)C713` [dicarboxy fullerene], for which, in data set [10], the “neuroprotective efficacy vs hexacarboxy derivative” value is given as “less effective neuroprotectants”. The “solubility in aqueous solution vs hexacarboxy derivative” value in data set [11] (aqueous solution) is recorded as “less soluble”.
Take C60 (C(COOH)2)3: in data set [11] (water), the solubility in water result is recorded as “at least 50 mM”. The “protection from NMDA, some experiments” value in data set [3] (300 (M [µM]) is on record as “nearly complete protection”. Besides, the “reduction of neuronal death from NMDA, all experiments” value in data set [3] (300 (M [µM], 24 h after 10 min NMDA, 300 µM) was “at least 60%”. In addition, in data set [3] (cortical neurons), the “protection against NMDA excitotoxic injury” value is on record as “protected cortical neurons against excitotoxic injury; also recorded: robust neuroprotection”. Moreover, the “reduction in neuronal cell death (NMDA), pooled data” value in data set [3] (pooled data from three experiments, FIG. 5) is recorded as 75%. For the same molecule, the “body weight vs untreated littermates” value in [12] is “weights were similar”. For the same molecule, in [13] (10 (M [µM], 48 hours, trypan blue, 10 µM), the “reduction in neuronal death, serum deprivation” value was 50%. In addition, the “apoptotic neuronal death due to serum deprivation” value in data set [13] (co-application) is recorded as “attenuated”. The “reduction of neuronal cell death from AMPA” value in data set [6] (100 (M [µM], MK-801 10 (M included), 24 h, data from 4 experiments pooled, 100 µM) is greater than 80%. In [6] (cortical neurons), the “protection against AMPA excitotoxic injury” value is “protected cortical neurons against excitotoxic injury; also recorded: robust neuroprotection”. In addition, the “scavenging ability towards OH vs potency for O2- radicals” value in data set [7] (OH over O2-) came to 10 fold. For the same molecule, the onset of symptoms entry in data set [14] was “delay in onset of symptoms”. Further, the delay in death in [14] (p=0.041 by t-test) was found to be 8 ± 2.2 days. Further, the “45Ca2+ accumulation” value in data set [15] was “not affected”.
